The source of these data is patent publication US8993633B2, “Treatment of muscle disease characterized by insulin resistance” (Fate Therapeutics, (Canada) Inc., priority 2009, dated 2015).

In data set [1] the test system is mdx mice. Description: H&E myofiber pathology and morphometry in mdx skeletal muscle. Format: in vivo, mouse. Conditions: for proportion of smaller myofibers (CSA<1500 μm^2): mdx-M. How it is done: (§1) Studies were conducted in which metformin was administered to 4-week old mdx mice followed by extensive biochemical and morphologic analysis. The 4-week age group coincides with the early muscle degeneration/regeneration cycle and as such tests the ability of metformin to limit the degeneration process that begins at 3-4 weeks of age in this murine model of DMD. Metformin delivery was accomplished with the use of osmotic pump technology (Alzet). Alzet osmotic pumps are produced in a variety of formats ideal for use in murine models. The pumps were preloaded with metformin and then surgically implanted in a subcutaneous position suitable for long-term delivery, i.e. mid-scapular region. The Alzet osmotic pump was loaded with a metformin concentration selected to deliver 100 mg/kg/body wt per day, per standard diabetic treatment regimes, at 28 days of continuous infusion (Misra 2008). A skilled person will appreciate that metformin could be given orally or by other routes of administration to humans but the osmotic pump is a convenient way to regulate administration over the 28 days of the murine model. Control animals were implanted with osmotic pumps containing saline. Given that metformin is an anti-hyperglycemic agent, blood glucose levels were measured.
(§2) Wild-type (C57BL-10) and mdx mice (C57BL/10ScSn-DMD/^mdx) were purchased from Jackson Laboratories (Bar Harbour, Me.) and housed in the University of Ottawa Animal Care Facility. Mice aged 3-4 weeks (peak necrotic stage) were surgically implanted with an (Alzet) osmotic mini-pump containing metformin or insulin for 14 and 28 days. Animals were randomly assigned to experimental or control treatment groups. Depending on the experiment, Mdx mice either received 100 mg/kg/d of metformin (Aldrich) (mdx-M) or 0.75 U of insulin (Sigma) (mdx-I). Drug concentrations were based on the effective dose range used in diabetic mouse models (Bailey and Puah, 1986; Cohen et al., 2004)
(§3) Control groups were surgically implanted with the mini-pump containing saline (wild type [WT-S], mdx-S). Following completion of drug treatment, animals were sacrificed by cervical dislocation and skeletal muscles (tibialis anterior TA, diaphragm DIA, gastrocnemius Gastro, and Soleus) were harvested. For analysis of biochemistry, skeletal muscles were snap frozen in liquid nitrogen. For preparation of paraffin sections skeletal muscles were fixed in formalin.
Muscle sections were rehydrated in xylene followed by descending alcohols (100%, 95%, 80%), incubated in Shandon Instant Hematoxylin (Fisher Scientific) for 3 mins, washed 1 min, incubated in Eosin (Fisher Scientific) for 3 mins and then dehydrated in ascending alcohols followed by incubation in xylene. Stained sections were mounted with permount (Fisher Scientific). Quantification of morphometric parameters was performed on ˜1000 fibers per muscle.

In data set [2] the test system is GSK-3β. Description: GSK-3β kinase activity in skeletal muscle of treated mdx mice. Conditions: for reduction of GSK-3β activity compared to mdx-S control: metformin 100 mg/kg/day by osmotic pump. Format: in vivo, mouse. The method, then:
as §1
(§4) Wild-type (C57BL-10) and mdx mice (C57BL/10ScSn-DMD/^mdx) were purchased from Jackson Laboratories (Bar Harbour, Me.) and housed in the University of Ottawa Animal Care Facility. Mice aged 3-4 weeks (peak necrotic stage) were surgically implanted with an (Alzet) osmotic mini-pump containing metformin or insulin for 14 and 28 days. Animals were randomly assigned to experimental or control treatment groups. Depending on the experiment, Mdx mice either received 100 mg/kg/d of metformin (Aldrich) (mdx-M) or 0.75 U of insulin (Sigma) (mdx-I). […]
(§5) Muscle samples were homogenized and quantified for protein concentration using Brafford Assay. […] Incorporation of radioactivity was counted using liquid scintillation counter. […]

Data set [3] relates to GLUT4. Description: GLUT4 localization by immunohistochemistry in mdx skeletal muscle. It is filed as in vivo, mouse. The method, then:
as §1, with “A skilled person will appreciate that metformin could be given orally or by other routes of administration to humans but the osmotic pump is a convenient way to regulate administration over the 28 days of the murine model. Control animals were implanted with osmotic pumps containing saline.” left out, “measured. […]” for “measured.”
Paraffin embedded muscles were section transversely (10 µm) and deparaffinized in descending alcohols, blocked with 3% BSA and permeabilized in 0.1% triton in PBS for 1 h at RT. […] Sections were then washed and mounted using fluorescence mounting medium (DAKO).

The test system of data set [4] is AKT. Description: AKT kinase activity in skeletal muscle of treated mdx mice. It is filed as in vivo, mouse. Conditions: for increase in AKT kinase activity compared to mdx-S control: metformin 100 mg/kg/day by osmotic pump. The method, then: as §1, §4, §5
Data set [5] deals with AMPK. Description: AMPK kinase activity in skeletal muscle of treated mdx mice. Format: in vivo, mouse. As to conditions: metformin 100 mg/kg/day by osmotic pump, 28 days. The method, then: as §1, with “measured. […]” for “measured.”
Data set [6] deals with mdx mice. Description: Monitoring of blood glucose and adverse health effects during drug treatment of mdx mice. Format: in vivo, mouse. Conditions: metformin 100 mg/kg/day, throughout drug treatment. The method, then:
as §1

The subject of data set [7] is mdx mice. Description: Rotorod test of motor performance in mdx mice. Format: in vivo, mouse. Conditions: mdx mice treated 28 days, by the 4th trial; 15 rpm start, 0.1 rpm/s acceleration. The method, then: Metformin treated mdx-mice display improved motor performance compared to saline-treated mdx-mice. Mice (mdx) 3-4 weeks of age were treated with metformin or saline for 28 days according to the protocol described above. At the end of the treatment phase, a rotorod test was performed, which was repeated daily for 3 consecutive days. The mice were 7-8 weeks of age when tested, thus young adults. The initial rotorod speed for each trial was 15 rpm with gradual acceleration at a rate of 0.1 rpm per second. Mean fall latency time refers to the average amount of time the mice could run on the rotating rod (seconds). As soon as the animals fell from the rod, the time was stopped. The average value shown represents the average of each trial (1-4) performed for 3 consecutive days. The rotorod test is a behavioural test of motor coordination or performance and fatigue resistance or exercise tolerance, where the earlier time points are essentially an adaptation to the rotorod.

The test system of data set [8] is DGC. Description: DGC component and utrophin protein levels and sarcolemmal distribution in mdx muscle. It is filed as in vivo, mouse. The method, then:
as §1, §2, §3
Paraffin embedded muscles were section transversely (10 µm) and deparaffinized in descending alcohols, blocked with 3% BSA and permeabilized in 0.1% triton in PBS for 1 h at RT. Sections were then incubated in primary antibodies against GLUT4 (Chemicon), Laminin (Sigma), Utrophin, 13-Dystroglycan and γ-Sarcoglycan were purchased from Vector Laboratories. In order to amplify primary antibody signal the avidin/biotin complex technique was performed on muscle sections. As well primary mouse antibodies were diluted in M.O.M diluent (M.O.M. Basic Kit, Vector Laboratories). In brief, sections were incubated with primary antibody overnight at 4° C. then incubated in biotinylated secondary antibody for 30 mins at RT, followed by incubation in FITC-streptoavidin conjugated secondary antibody (Molecular Probes) for 1 h at RT. Sections were then washed and mounted using fluorescence mounting medium (DAKO).
Muscle samples were homogenized, lyzed and quantified for protein concentration using Brafford Assay. Equal concentrations of protein samples were resolved by 6-8% SDS-PAGE and transferred to nitrocellulose membranes. Primary antibodies against IRS, IRS^y941, IRS^S307, anti-MHC (clone MF20) were used at a dilution of 1:500. Rabbit polyclonal antibodies were detected using horseradish peroxidase-conjugated anti-rabbit at dilution of 1:5000. Immunoblots were developed using with Supersignal West Pico Chemiluminescence substrate.

Data set [9] concerns mdx mice. Description: Glycogen deposition by periodic acid Schiff staining in mdx skeletal muscle. It is filed as in vivo, mouse. As to conditions: TA muscle of mdx mice, metformin treatment, PAS staining. How it is done: as §1, with “measured. […]” for “measured.”
The test system of data set [10] is mdx mice. Description: Evans blue dye uptake (sarcolemmal integrity) in mdx muscle. It is filed as in vivo, mouse. Conditions: metformin-treated mdx, 28 days; untreated (MS) 42%. How it is done:
as §2
To measure sarcolemmal integrity, treated and untreated mdx mice were injected intravenously through the dorsal tail vein with 50 ul/10 g of 1% Evans Blue Dye (EBD, Sigma) in sterilized phosphate-buffered saline (PBS 7.4). Skeletal muscle was harvested 6-8 hrs post-injection and prepared for immunofluorescence as previously described. To visualize sarcolemmal membrane, EBD infiltrated fibers sections were incubated in anti-laminin (Sigma) at 4° C. overnight and then mounted in fluorescent mounting medium (DAKO).

For data set [11] the following is noted: cited from earlier work.
Setting [12] is: 28-day insulin delivery (0.75 U).
The mark [13] stands for this setting: immunoblot, compared to mdx-Saline control.
The mark [14] stands for this setting: immunohistochemistry, mdx myofibers.

Turning to “insulin: insulin (Sigma), 0.75 U delivered by osmotic mini-pump to mdx mice (mdx-I)”, the “fiber size variability and protection against degeneration (H&E)” value in data set [1] (TA and DIA fibers of mdx-I) was “no reduction in fiber size variability and protection against degeneration”. In data set [1] (mdx-I vs mdx-S), the “number of centrally located nuclei” value is listed as “remained comparable”. Moreover, the “fiber size distribution (morphometric analysis)” value in [1] (mdx-I, in particular the DIA) is given as “no overall change”. Also, the GSK3β kinase activity result in data set [2] (setting [12]) was “only marginal changes”. Further, the GLUT4 localization entry in data set [3] (mdx mice following insulin treatment) is “remained localized in a perinuclear domain”. In addition, the AKT kinase activity result in [4] (setting [12]) is recorded as “no significant change”.
`CN(C)C(=N)NC(=N)N` [Metformin, N,N-dimethylimidodicarbonimidicdiamide]: the “elevation in AMPK kinase activity over baseline levels in mdx-S control” value in [5] (DIA muscle) stood at 55%; in data set [5] (TA muscle), 75%. In addition, in data set [6], the “hypoglycemia or adverse health effects” value was “no evidence of hypoglycemia or adverse health effects”. The “rotorod running time (fall latency)” value in [7] was “significant improvement in running time”. The “proportion of smaller myofibers (CSA<1500 μm^2)” value in [1] (DIA, untreated 38%) is listed as 23%; in data set [1] (TA, untreated 22%), 14%. Besides, the focal necrosis entry in [1] (TA, DIA, gastrocnemius and soleus of mdx mice, 28-day metformin vs saline) is given as “significant decline in the focal necrosis”. Also, in [1] (mdx-M fibers after 28 days metformin, untreated mdx-S 55%), the “fibers displaying central nuclei” value is reported as about 38%. Besides, in [8] (gastrocnemius, compared to mdx-Saline control), the utrophin protein levels result is “increased”. In [8] (setting [13]), the β-dystroglycan protein expression result is “increased”. The γ-sarcoglycan protein expression entry in data set [8] (setting [13]) is on record as “increased”. Besides, in [8] (setting [14]), the “sarcolemmal distribution of β-dystroglycan” value was “notable increase”. Moreover, the “sarcolemmal distribution of γ-sarcoglycan” value in data set [8] (setting [14]) is “notable increase”. The “utrophin along the extrasynaptic sarcolemma” value in [8] (setting [14]) is “robust increase”. The “skeletal muscle glycogen content” value in [9] was “complete normalization of glycogen content”. The “reduction of GSK-3β activity compared to mdx-S control” value in data set [2] (DIA muscle) is reported as 66%; in [2] (TA muscle) it was 31%. Besides, in data set [3] (TA muscle of mdx mice, metformin treatment), the GLUT4 localization entry is “restoration of GLUT4 protein to that observed in wild-type skeletal muscle”. The “myofibers positively stained for EBD” value in [10] amounted to 22%. Further, the results for the “increase in AKT kinase activity compared to mdx-S control” value in [4] (DIA muscle) and in data set [4] (TA muscle) were about 80% and 83%, respectively. Besides, the “incidence of lactic acidosis” value in data set [11] (patients) is “about 0.03 cases per 1000 patients years of treatment”. Moreover, the “mortality risk of lactic acidosis” value in data set [11] (patients) is “about 0.015 per 1000 patient-years”. Further, in [11] (remit when the dosage is reduced), the “gastrointestinal adverse effects, notably diarrhea” value was “less than 20 % of patients”.
